We go through 1 compound from the NIST ThermoML archive (doi:10.1021/je5000605).

The conditions of the data set: 293.15 K; 101.33 kPa; Crystal; Pycnometric method.

Structures are written as SMILES. Numbers after ± are expanded uncertainties.

In the case of `C=CC1=C(C(=O)O)N2C(=O)[C@@H](NC(=O)/C(=N\OCC(=O)O)c3csc(N)n3)[C@H]2SC1.O.O.O` [cefixime trihydrate], the molar volume is 0.0004982 ± 1e-05 m3/mol.
